The text below walks through data of US5389614A (Cassella AG, priority 1991, dated 1995).

Test [1] concerns the target T1, fibrinogen receptor (glycoprotein IIb/IIIa) (Homo sapiens, UniProt P05106+P08514).
T1 construct: its receptor (glycoprotein IIb/IIIa) on intact, gel-filtered human platelets; endogenous in cells; host or cells: gel-filtered human platelets from donor blood, stimulated with ADP (10 µM)
Put plainly: Inhibition of bonding of 125I-fibrinogen to its receptor on intact, gel-filtered human platelets. It is filed as binding. The following applies: inhibition of 125I-fibrinogen bonding after stimulation with ADP (10 μM), read-out: K1 (μm), ADP stimulated. Here is the method:
(§1) The compounds are tested above all for their inhibiting action on blood platelet aggregation and the adhesion of fibrinogen to blood platelets.
(§2) Gel-filtered blood platelets from human donor blood activated with ADP or thrombin are used.
A) Inhibition of bonding of fibrinogen to its receptor (glycoprotein IIb/IIIa) on intact, gel-filtered human platelets by the compounds according to the invention is tested. The Ki value of the inhibition of the bonding of ^125 I-fibrinogen after stimulation with ADP (10 μM) is stated.
Literature: J. S. Bennett and G. Vilaire, J. Clin. Invest. 64 (1979), 1393-1401

The subject of test [2] is gel-filtered human platelets. Put plainly: Inhibition of aggregation of gel-filtered human platelets after ADP or thrombin stimulation. The test is classed as cell-based. As to conditions: platelet aggregation. The protocol:
as §1, §2
B) As a functional test, the inhibition of aggregation of gel-filtered human platelets by the compounds according to the invention after ADP or thrombin stimulation is measured. The IC50 value of the inhibition is stated.

Setting [3] is: ADP stimulation, read-out: IC50 (μM), ADP-stimulated.
The mark [4] stands for this setting: thrombin stimulation, read-out: IC50 (μM), Thrombin-stimulated.
Setting [5] is: Homo sapiens, ADP stimulation, read-out: IC50 (μM), ADP-stimulated.
Setting [6] is: Homo sapiens, thrombin stimulation, read-out: IC50 (μM), Thrombin-stimulated.

Like-named read-outs stand apart in the source and are kept apart here.

T1 sequence (P08514 32-887 limits assumed): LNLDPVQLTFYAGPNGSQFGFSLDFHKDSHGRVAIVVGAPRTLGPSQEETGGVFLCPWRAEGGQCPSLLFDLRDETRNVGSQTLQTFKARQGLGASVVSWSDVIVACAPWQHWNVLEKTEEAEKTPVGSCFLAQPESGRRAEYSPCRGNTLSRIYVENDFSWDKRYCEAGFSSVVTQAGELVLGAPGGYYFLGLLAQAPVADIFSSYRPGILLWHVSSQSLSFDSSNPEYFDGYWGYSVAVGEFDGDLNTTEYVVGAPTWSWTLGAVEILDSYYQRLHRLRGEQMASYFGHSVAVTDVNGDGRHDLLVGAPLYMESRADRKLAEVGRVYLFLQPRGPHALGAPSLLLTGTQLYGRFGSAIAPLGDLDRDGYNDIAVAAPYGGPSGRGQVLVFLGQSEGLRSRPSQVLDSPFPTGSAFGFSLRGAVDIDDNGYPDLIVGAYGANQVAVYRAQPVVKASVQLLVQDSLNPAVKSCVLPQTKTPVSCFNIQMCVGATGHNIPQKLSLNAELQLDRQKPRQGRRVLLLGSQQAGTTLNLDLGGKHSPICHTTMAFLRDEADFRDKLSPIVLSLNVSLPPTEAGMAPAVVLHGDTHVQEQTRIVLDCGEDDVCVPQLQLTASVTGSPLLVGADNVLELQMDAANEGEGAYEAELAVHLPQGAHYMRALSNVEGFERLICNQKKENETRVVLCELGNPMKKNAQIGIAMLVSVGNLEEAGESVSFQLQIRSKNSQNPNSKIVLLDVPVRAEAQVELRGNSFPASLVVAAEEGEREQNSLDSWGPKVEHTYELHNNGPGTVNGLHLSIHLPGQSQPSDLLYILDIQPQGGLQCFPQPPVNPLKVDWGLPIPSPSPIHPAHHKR
T1 sequence (P08514 891-1039 partner limits assumed): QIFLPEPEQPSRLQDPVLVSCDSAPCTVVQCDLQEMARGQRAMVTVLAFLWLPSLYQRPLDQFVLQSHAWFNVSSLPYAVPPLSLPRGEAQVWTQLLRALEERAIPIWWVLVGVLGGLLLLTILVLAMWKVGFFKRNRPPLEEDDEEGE
T1 sequence (P05106 27-788): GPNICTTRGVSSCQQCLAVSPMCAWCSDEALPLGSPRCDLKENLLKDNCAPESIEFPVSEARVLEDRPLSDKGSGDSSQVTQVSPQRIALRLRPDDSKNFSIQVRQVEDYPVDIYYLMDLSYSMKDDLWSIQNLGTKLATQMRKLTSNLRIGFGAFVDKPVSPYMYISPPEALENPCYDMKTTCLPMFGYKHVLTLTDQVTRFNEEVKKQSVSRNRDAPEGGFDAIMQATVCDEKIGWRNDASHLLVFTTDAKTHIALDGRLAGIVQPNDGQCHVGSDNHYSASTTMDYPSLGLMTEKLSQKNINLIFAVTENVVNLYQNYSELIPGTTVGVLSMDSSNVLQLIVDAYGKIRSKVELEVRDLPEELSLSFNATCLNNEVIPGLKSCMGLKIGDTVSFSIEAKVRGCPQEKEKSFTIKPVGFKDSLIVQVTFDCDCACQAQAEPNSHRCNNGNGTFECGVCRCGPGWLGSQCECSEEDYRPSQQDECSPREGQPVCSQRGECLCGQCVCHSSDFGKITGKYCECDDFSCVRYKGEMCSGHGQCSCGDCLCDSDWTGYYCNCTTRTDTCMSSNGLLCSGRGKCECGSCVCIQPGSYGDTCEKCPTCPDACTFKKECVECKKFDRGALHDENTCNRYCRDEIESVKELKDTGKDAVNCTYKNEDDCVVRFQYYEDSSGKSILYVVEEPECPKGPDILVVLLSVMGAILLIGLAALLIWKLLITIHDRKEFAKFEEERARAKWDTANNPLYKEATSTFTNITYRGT

For `CC(C)[C@H](NC(=O)[C@H](CC(=O)O)NC(=O)c1cccc(N2C(=O)N[C@@H](CCCNC(=N)N)C2=O)c1)C(=O)O` [Example 11, 3-(5-(S)-(3-Guanidinopropyl)-2,4-dioxoimidazolidin-3-yl)benzoyl-L-aspartyl-L-valine], the Ki in test [1] is 1870 nM.

Regarding `CC(C)[C@H](NC(=O)[C@H](CC(=O)O)NC(=O)CN1C(=O)N[C@@H](Cc2ccc(N)cc2)C1=O)C(=O)O` [Example 7], the Ki in test [1] was 2430 nM.

For `N=C(N)c1ccc(CC2NC(=O)N(CC(=O)N[C@@H](CC(=O)O)C(=O)N[C@H](C(=O)O)c3ccccc3)C2=O)cc1` (stereo partly drawn) [Example 5, [5-(S,R)-(4-Formamidino-benzyl) -2,4-dioxoimidazolidin-3-yl]-acetyl-L-aspartyl-L-phenylglycine], the IC50 was determined as 0.2 µM in test [2] (setting [3]) and 0.1 µM in test [2] (setting [4]). Moreover, in test [1], the Ki stood at 22 nM.

Turning to `CC(C)[C@H](NC(=O)[C@H](CC(=O)O)NC(=O)CN1C(=O)NC(Cc2ccc(C(=N)N)cc2)C1=O)C(=O)OCc1ccccc1` (stereo partly drawn) [Example 21, (5-(R,S)-(4-Formamidinobenzyl) -2,4-dioxo-imidazolidin-3-yl) -acetyl-L-aspartyl-L-valine benzyl ester], the values for the half-inhibitory concentration (IC50) in test [2] (setting [3]) and in test [2] (setting [4]) were 0.7 µM and 0.3 µM, respectively. Further, the Ki in test [1] is 240 nM.

On to `NCc1ccc(CC2NC(=O)N(CC(=O)N[C@@H](CC(=O)O)C(=O)N[C@H](C(=O)O)c3ccccc3)C2=O)cc1` (stereo partly drawn) [Example 19, (5-(4-Aminomethylbenzyl)-2,4-dioxo-imidazolidin-3-yl)-acetyl-L-aspartyl-L-phenyglycine], for which the half-inhibitory concentration (IC50) stood at 7 µM in test [2] (setting [3]) and 2.5 µM in test [2] (setting [4]).

Consider `CN(C(=O)[C@H](CC(=O)O)NC(=O)CN1C(=O)NC(Cc2ccc(C(=N)N)cc2)C1=O)[C@H](C(=O)O)c1ccccc1` (stereo partly drawn) [Example 20, (5-(R,S)-(4-Formamidinobenzyl)-2,4-dioxo-imidazolidin-3-yl)-acetyl-L-aspartyl-(N-methyl)-L-phenylglycine], for which the half-maximal inhibitory concentration (IC50) in test [2] (setting [3]) turned out to be 4.5 µM; in test [2] (setting [4]) it was 2.5 µM. Also, in test [1], the Ki turned out to be 1590 nM.

Take `N=C(N)c1ccc(CC2NC(=O)N(CC(=O)NCCC(=O)O)C2=O)cc1` (racemic) [Example 6, [5-(S,R)-(4-Formamidino-benzyl) -2,4-dioxoimidazolidin-3-yl]-acetyl-β-alanine]: the half-inhibitory concentration (IC50) in test [2] (setting [3]) was 5.5 µM; in test [2] (setting [4]), 3 µM. Moreover, the Ki in test [1] came to 1910 nM.

In the case of `N=C(N)c1ccc(CC2NC(=O)N(CC(=O)N[C@@H](CC(=O)O)C(=O)N[C@@H](Cc3c[nH]c4ccccc34)C(=O)O)C2=O)cc1` (stereo partly drawn) [Example 22, (5-(R,S)-(4-Formamidinobenzyl)-2,4-dioxo-imidazolidin-3-yl)-acetyl-L-aspartyl-L-tryptophan], the values for the concentration for half-maximal inhibition (IC50) in test [2] (setting [3]) and in test [2] (setting [4]) were 0.8 µM and 0.25 µM, respectively. Also, the Ki in test [1] worked out at 140 nM.

Consider `CC(C)[C@H](NC(=O)[C@H](CC(=O)O)NC(=O)CN1C(=O)[C@H](CCCNC(=N)N)N(C)C1=O)C(=O)O` [Example 2], for which the IC50 in test [2] (setting [5]) amounted to 4.5 µM; in test [2] (setting [6]), 1.5 µM. In addition, the Ki in test [1] came out at 400 nM.

Consider `CC(C)[C@H](NC(=O)[C@H](CC(=O)O)NC(=O)CN1C(=O)NC(Cc2ccc(C(=N)N)cc2)C1=O)C(=O)O` (stereo partly drawn) [Example 1, [5-(S,R )-(4-Formamidino-benzyl)-2,4-dioxoimidazolidin-3-yl]-acetyl-L-aspartyl-L-valine.], for which the IC50 stood at 0.4 µM in test [2] (setting [3]) and 0.15 µM in test [2] (setting [4]). Further, the Ki in test [1] amounted to 31 nM.

As to `C[C@@H](O)[C@H](NC(=O)[C@H](CC(=O)O)NC(=O)CN1C(=O)NC(Cc2ccc(C(=N)N)cc2)C1=O)C(=O)O` (stereo partly drawn) [Example 16, (5-(R,S)-(4-Formamidinobenzyl)-2,4-dioxo-imidazolidin-3-yl) -acetyl-L-aspartyl-L-threonine], the IC50 in test [2] (setting [3]) is 0.7 µM; in test [2] (setting [4]), 0.2 µM. The Ki in test [1] was 120 nM.

Consider `N=C(N)c1ccc(CC2NC(=O)N(CC(=O)N[C@@H](CC(=O)O)C(=O)N[C@@H](Cc3ccccc3)C(=O)O)C2=O)cc1` (stereo partly drawn) [Example 14, (5-(R,S)-(4-Formamidinobenzyl)-2,4-dioxo-imidazolidin-3-yl)-acetyl-L-aspartyl-L-phenylalanine], for which the 50% inhibitory concentration (IC50) came out at 0.55 µM in test [2] (setting [3]) and 0.3 µM in test [2] (setting [4]). The Ki in test [1] is 270 nM.

In the case of `CC(C)[C@H](NC(=O)[C@H](CC(=O)O)NC(=O)CN1C(=O)N[C@@H](CCCCN)C1=O)C(=O)O` [Example 3, [5-(S)-(4-Amino-butyl)-2,4-dioxoimidazolidin-3-yl]-acetyl-Asp-Val-OH], the values for the half-inhibitory concentration (IC50) in test [2] (setting [3]) and in test [2] (setting [4]) were 30 µM and 4 µM, respectively.

For the molecule `NCc1ccc(C=C2NC(=O)N(CC(=O)N[C@@H](CC(=O)O)C(=O)N[C@H](C(=O)O)c3ccccc3)C2=O)cc1` [Example 15], the results for the half-maximal inhibitory concentration (IC50) in test [2] (setting [5]) and in test [2] (setting [6]) were 0.7 µM and 0.45 µM, respectively. Also, the Ki in test [1] was 280 nM.

For the molecule `CCCCCCCCCCCCCCCCOC(=O)[C@@H](NC(=O)[C@H](CC(=O)O)NC(=O)CN1C(=O)NC(Cc2ccc(C(=N)N)cc2)C1=O)c1ccccc1` (some centres unmarked) [Example 17], the IC50 was 4.5 µM in test [2] (setting [3]) and 4 µM in test [2] (setting [4]).

`CC(C)[C@H](NC(=O)[C@H](CC(=O)O)NC(=O)CCN1C(=O)N[C@@H](CCCCN)C1=O)C(=O)O` [Example 32]: the results for the IC50 in test [2] (setting [5]) and in test [2] (setting [6]) were 6 µM and 2 µM, respectively. In test [1], the Ki turned out to be 2710 nM.

Consider `N=C(N)c1ccc(CC2NC(=O)N(CC(=O)N[C@@H](CC(=O)O)C(=O)N[C@@H](CCCCN)C(=O)O)C2=O)cc1` (stereo partly drawn) [Example 13, (5-(R, S)-(4-Formamidinobenzyl)-2,4-dioxo-imidazolidin-3-yl) -acetyl-L-aspartyl-L-lysine], for which the values for the IC50 in test [2] (setting [3]) and in test [2] (setting [4]) were 0.35 µM and 0.4 µM, respectively. The Ki in test [1] worked out at 42 nM.

As for `CC[C@H](C)[C@H](NC(=O)[C@H](CC(=O)O)NC(=O)CN1C(=O)NC(Cc2ccc(C(=N)N)cc2)C1=O)C(=O)O` (stereo partly drawn) [Example 12, (5-(R,S)-(4-Formamidinobenzyl)-2,4-dioxo-imidazolidin-3-yl)-acetyl-L-aspartyl-L-isoleucine], the values for the half-maximal inhibitory concentration (IC50) in test [2] (setting [3]) and in test [2] (setting [4]) were 0.2 µM and 0.1 µM, respectively. In test [1], the Ki was 42 nM.

As to `CC(C)[C@H](NC(=O)[C@H](CC(=O)O)NC(=O)CN1C(=O)N[C@@H](Cc2ccc(NC(=N)N)cc2)C1=O)C(=O)O` [Example 8], the IC50 in test [2] (setting [5]) turned out to be 6 µM; in test [2] (setting [6]), 3 µM. In addition, in test [1], the Ki was 710 nM.
